# Reference: US5576177A, “Bioassay for reverse transcriptase inhibitors” (St. Jude Children's Research Hospital, priority 1994, dated 1996)
# Where two headings read alike, the source gives them in different places.
# Columns and labels:
# [1] = biological target: HIV-1 reverse transcriptase (HIV-1 M:B_HXB2R, UniProt P04585); assay: Inhibition of HIV-1 reverse transcriptase (TTP incorporation, poly[rA]-oligo[dT]12-18 primer-template); assay type: biochemical; details: for inhibition of reverse transcriptase activity (effect on reaction kinetics): at concentrations of up to 10,000 fmols
# Protocol: (§1) Reverse transcriptase assays were performed using substantially purified HIV-1 reverse transcriptase and poly[rA]-oligo[dT]12-18 as primer-template. The reactions were carried out in a total volume of 10 μl; a 4.5 μl volume of the sample was mixed with an equal volume of a reaction mixture to provide a final concentration of 50 mM Tris (pH 8.5), 6 mM MgCl2, 10 mM dithiothreitol (DTT), 2.0 μg bovine serum albumin (BSA), 0.5 μCi TTP, 80 mM KCl, and 0.05% Triton X-100. The reaction was initiated by the addition of 1.0 μl of HIV reverse transcriptase (containing~1 ng protein; from American BioTechnology,Cambridge, Mass.; Cat. No. 26001). After 1 hour incubation at 37° C., the reaction was stopped by the addition of 5.0 μof stop buffer (50 mM EDTA+3% SDS). The reverse transcriptase products (polymerization products) were separated from the unincorporated label by chromatography on Sephadex G-25 (superfine) columns. The fractions corresponding to the void volume were collected and counted by scintillation counting.
# [2] = system: CEM cells; assay: Zidovudine triphosphate level in CEM cells by HPLC-RIA; assay type: in vitro ADME; details: 4 hr incubation with 1 μM zidovudine, n = 3
# Protocol: (§2) One fraction was analyzed by HPLC and zidovudine metabolites were quantitated by usual radioisotopic methods.
# (§3) Cell extracts were analyzed and quantified by using the different assays as described in Materials and Methods. Statistical parameters represent the standard deviation of the mean (δ) of three determinations of parallel samples.
# CEM cells were extracted in the same manner as cultured peripheral blood mononuclear cell samples (see Materials and Methods). […] The samples were cleaned up using Waters Sep-pak C-18 cartridges. The cartridges were conditioned with 10% methanol and then rinsed with water. Each sample was applied separately and eluted with 50% methanol. The samples were vacuum desiccated to a volume under 500 μl and further purified with a 250 mm Whatman ODS-3 column. Buffer A was 35% methanol and buffer B was 50% methanol. The gradient was 15 min at 0% B followed by 20 min at 100% B with a flow rate of 0.5 ml/min and fractions collected every min. The fractions containing zidovudine were pooled and vacuum desiccated to dryness. […] The antibody was diluted 1:3 and preincubated with the sample 2 hours.
# [3] = system: CEM cells; assay: Zidovudine triphosphate level in CEM cells by HPLC-radioactive method; assay type: in vitro ADME; details: 4 hr incubation with 1 μM zidovudine, n = 1
# Protocol: (§4) Preparation of cell extracts. […] The cell pellets were resuspended in 1 ml of residual media and layered onto 150 μl of nyosil oil, and spun through the oil. The media above the oil layer was removed, and any residual media was removed by rinsing the area above the oil layer by two gentle water washes. Finally, the oil was removed and the cells were extracted with 70% methanol+15 mM Tris-HCl buffer (pH 7.4) for at least 15 min on ice. The debris was removed by centrifugation and the samples stored at -20° C. until required.
# as §2
# (§5) Buffers used in the separation procedure were A--0.005M ammonium phosphate at pH 4.0+10% methanol and B--0.7M ammonium phosphate at pH 4.6+10% methanol.
# as §3
# [4] = system: CEM cells; assay: Zidovudine triphosphate level in CEM cells by reverse transcriptase bioassay; assay type: in vitro ADME; details: 4 hr incubation with 1 μM zidovudine, n = 3
# Protocol: as §4
# Reverse transcriptase assays were performed using substantially purified HIV-1 reverse transcriptase and poly[rA]-oligo[dT]12-18 as primer-template. The reactions were carried out in a total volume of 10 μl; a 4.5 μl volume of the sample was mixed with an equal volume of a reaction mixture to provide a final concentration of 50 mM Tris (pH 8.5), 6 mM MgCl2, 10 mM dithiothreitol (DTT), 2.0 μg bovine serum albumin (BSA), 0.5 μCi TTP, 80 mM KCl, and 0.05% Triton X-100. […] The fractions corresponding to the void volume were collected and counted by scintillation counting.
# as §2
# Cell extracts were analyzed and quantified by using the different assays as described in Materials and Methods. […]
# [5] = system: peripheral blood mononuclear cells; details: AIDS patients receiving 300 mg oral zidovudine; cited from earlier work
# [6] = system: human immunodeficiency virus reverse transcriptase; details: cited from earlier work
# [7] = system: peripheral blood mononuclear cells; assay: Intracellular zidovudine triphosphate in peripheral blood mononuclear cells of HIV-infected volunteers (reverse transcriptase bioassay); assay type: in vivo, human
# Protocol: Peripheral blood mononuclear cell isolation. Heparinized blood from normal human volunteers or asymptomatic HIV seropositive individuals was diluted 1:1 with HBSS, layered onto LSM (Ficoll hypaque) and then separated by centrifugation for 30 min at 400×g. The mononuclear cell layer was removed, washed once with growth media, counted, and pelleted by centrifugation. The cells were then resuspended in growth medium (RPMI containing 10% fetal calf serum) and the residual erythrocytes lysed by the addition of 3 volumes of cold water for 30 seconds. Erythrocyte lysis was stopped by the addition of 1 volume of 0.6M sodium chloride, and the mononuclear cells were pelleted by centrifugation.
# Uncultured peripheral blood mononuclear cells from zidovudine-treated patients were resuspended in 1 ml of media and transferred to a 1.5 ml centrifuge tube, spun 1 min at 14,000 rpm, the media removed, and pulsed again to allow removal of any residual media. The cells were extracted for at least 15 min with 200 μl of ice cold 70% methanol per 1×10^7 cells. The cell debris was removed by centrifugation for 15 min at 14,000 rpm and the supernate stored in -20° C. until required for analysis. Prior to use, the extracts were dried under vacuum and resuspended in 50 μl of 5 mM Tris-HCl buffer (pH 8.5); extracts from 0.5×10^7 CEM cells or 1×10^7 cultured peripheral blood mononuclear cells were reconstituted in 200 μl buffer.
# as §1
# The zidovudine-free peripheral blood mononuclear cells from each individual at baseline (untreated) served as the cell background to construct the standard curve for zidovudine triphosphate determination.
# (§6) Individuals in this study were HIV-infected individuals recruited from an area clinic. […] CD4 and CD8 cell counts were determined from baseline samples.
# [8] = system: peripheral blood mononuclear cells; assay: Phosphorylation of zidovudine in peripheral blood mononuclear cells in vitro; assay type: in vitro ADME, human; details: proliferating compared to resting cells; 1 μM [^3 H]zidovudine
# Protocol: Culture of human peripheral blood mononuclear cells. The peripheral blood mononuclear cells were suspended in growth media and transferred to plastic tissue culture flasks. The monocyte/macrophage cells were allowed to adhere to the flask for at least 60 min after which the non-adherent cells comprises primarily of lymphocytes were transferred to a new flask. The cells were stimulated by addition of 5 μg/ml of PHA-P and 10 units/ml of IL-2 and incubated for 72 hours at 37° C. prior to use. Fresh media was added every 24 hours to maintain the IL-2 concentration. If quiescent cells were required the PHA-P and IL-2 were omitted and the cells were used the following day.
# as §4, §5
# [9] = Plasma zidovudine concentrations and pharmacokinetics in HIV-infected volunteers (RIA); assay type: in vivo, human; details: for concentration at 1 h: po; for AUC: read-out: AUC (area under the curve), median; for half-life: read-out: t1/2 (half life), median (converted)
# Protocol: Pharmacokinetic studies in patients. To assess the utility and sensitivity of the bioassay of the invention in patients, a clinical study was performed. The study was approved by the Institutional Review Board of St. Jude Children's Research Hospital and informed consent was obtained from each individual according to institutional procedures.
# as §6
# Prior distributions for the parameters were assumed to be log normally distributed with known but independent variances (i.e., no parameter covariance) and were taken from previous studies in similar patients (Flether et al., Pharmacotherapy 12:429-434 (1992)).
# Plasma samples were heat inactivated at 56° C. for 4 hours prior to assay. The samples were diluted to obtain values within a standard curve range of 10-200 ng/ml with 200 μl of sample. […] Five-hundred μl of a secondary antibody precipitating complex was added and incubated for 20 min at room temperature. The resultant mixtures were centrifuged, the supernate decanted, and the precipitate counted using an LKB gamma counter connected to an IBM PC computer with an RIA Calif. LC software program.
# [10] = 10 to 500 fmol, no cell extract
# [11] = spiked with extract of peripheral blood mononuclear cells (about 10^6 cells)
# [12] = human, plasma, 100 mg single oral dose
# [13] = human, plasma, 500 mg single oral dose
compound,measurement,setting,value
"Cc1cn([C@H]2C[C@H](O)[C@@H](COP(=O)(O)O)O2)c(=O)[nH]c1=O [thymidine monophosphate (TMP), thymidine monophosphate]",inhibition of reverse transcriptase activity (effect on reaction kinetics),[1],did not affect the reaction kinetics
Cc1cn([C@H]2C[C@H](N=[N+]=[N-])[C@@H](CO[P@](=O)(O)O[P@](=O)(O)OP(=O)(O)O)O2)c(=O)[nH]c1=O [zidovudine triphosphate],Zidovudine Triphosphate,[2],1.50 ± 0.65 pmol/10^6 cells
same,Zidovudine Triphosphate,[3],1.42 pmol/10^6 cells
same,Zidovudine Triphosphate,[4],1.39 ± 0.17 pmol/10^6 cells
same,zidovudine triphosphate level relative to the patent's results,[5],10 -fold higher
same,coefficient of regression of linear inhibition kinetics,[1]; [10],0.99
same,inhibition kinetics of HIV reverse transcriptase,[1]; [10],linear inhibition kinetics
same,R of linear inhibition kinetics,[1]; [11],> 0.98
same,inhibition kinetics of HIV reverse transcriptase,[1]; [11],good linear kinetics
same,inhibition of HIV reverse transcriptase,[6],potent inhibitor
same,reverse transcriptase chain termination,[6],causes reverse transcriptase chain termination
same,proportion of median plateau values,[7]; 500 mg vs 100 mg,1.7
same,time course of zidovudine triphosphate values,[7]; 1 to 6 hours after zidovudine,increased from 1 to 2 hours (Table 3 (below)) and then remained at a plateau value through 6 hours
same,measurability of zidovudine triphosphate after zidovudine administration,[7]; 100 or 500 mg zidovudine,could be measured in all 12 volunteers
same,Median Ratio (500/100),[7]; 1 h,8.4
same,Median Ratio (500/100),[7]; 2 h,1.6
same,Median Ratio (500/100),[7]; 4 h,1.5
same,Median Ratio (500/100),[7]; 6 h,2.1
same,% CV range of intracellular zidovudine triphosphate,[7]; after 100 or 500 mg zidovudine,52-157%
"Cc1cn([C@H]2C[C@H](N=[N+]=[N-])[C@@H](CO)O2)c(=O)[nH]c1=O [zidovudine, 3'-azido-3'-deoxythymidine]",phosphorylation rate of zidovudine,[8],high phosphorylation rate
same,Plasma Zidovudine,"[9]; 100 mg single oral dose, 6 h, #ND = plasma zidovudine concentration below standard curve in 4 of 5 patients",ND#
same,difference of CLo between dose groups,"[9]; 100 mg vs 500 mg, p>0.2 by Mann-Whitney U test",not significantly different
same,concentration at 1 h,"[9]; human, plasma, 100 mg dose",1790 nM
same,concentration at 1 h,"[9]; human, plasma, 500 mg dose",6300 nM
same,concentration at 2 h,[9]; [12],760 nM
same,concentration at 4 h,[9]; [12],260 nM
same,AUC,[9]; [12],1200 ng·h/mL
same,half-life,[9]; [12],1.29 h
same,concentration at 2 h,[9]; [13],3000 nM
same,concentration at 4 h,[9]; [13],900 nM
same,concentration at 6 h,"[9]; human, plasma, 500 mg single oral dose, 6 h",360 nM
same,AUC,[9]; [13],4200 ng·h/mL
same,half-life,[9]; [13],1.07 h
Cc1cn([C@H]2C[C@H](N=[N+]=[N-])[C@@H](COP(=O)(O)O)O2)c(=O)[nH]c1=O [zidovudine-MP],inhibition of reverse transcriptase activity (effect on reaction kinetics),[1],did not affect the reaction kinetics
